Results reported in US20140349944A1, “CHAPERONE-BASED INTEGRIN INHIBITORS FOR THE TREATMENT OF CANCER AND INFLAMMATORY DISEASES” (priority 2013, published 2014).

System: gp96 and αL-HA in RAW264.7 cells
Experiment: Tunicamycin treatment of RAW264.7 cells, IP and immunoblot
Format: cell-based
Details: 5 μg/ml Tunicamycin

With Tunicamycin the “binding of immature ER αL-HA to gp96” value (12 hours (FIG. 1E)) was “reduction in binding to gp96”, the “dimerization of matured cell surface αL-HA with β2-myc” value (12 hours (FIG. 1E)) was “no change” and the gp96 expression (12 hours, via unfolded protein response) was “upregulation”.
